Experimental data as given in ChEMBL document CHEMBL4804281, “STK4 inhibitors for treatment of hematologic malignancies” (2020).

Legend:
[1] = molecular target: Cyclin-dependent kinase 11B (Homo sapiens) (UniProt P21127); test: Inhibition of PITSLRE in human NCI-H929 cells at 10 uM by mass spectroscopic analysis relative to control; assay type: cell-based
[2] = molecular target: T1, Aurora kinase C (Homo sapiens) (UniProt Q9UQB9); test: Inhibition of AURC in human NCI-H929 cells at 10 uM by mass spectroscopic analysis relative to control; assay type: cell-based
T1 sequence (whole entry): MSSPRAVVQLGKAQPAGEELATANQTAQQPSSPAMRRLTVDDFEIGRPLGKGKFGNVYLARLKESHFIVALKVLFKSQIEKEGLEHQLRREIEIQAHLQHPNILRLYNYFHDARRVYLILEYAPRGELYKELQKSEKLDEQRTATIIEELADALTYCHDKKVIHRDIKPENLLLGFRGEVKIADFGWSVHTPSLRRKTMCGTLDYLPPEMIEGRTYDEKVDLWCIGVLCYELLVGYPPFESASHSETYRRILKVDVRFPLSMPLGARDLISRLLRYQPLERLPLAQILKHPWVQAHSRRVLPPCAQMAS

[3] = molecular target: T2, Serine/threonine-protein kinase TAO1 (Homo sapiens) (UniProt Q7L7X3); test: Inhibition of TAO1 in human NCI-H929 cells at 10 uM by mass spectroscopic analysis relative to control; assay type: cell-based
T2 sequence (whole entry): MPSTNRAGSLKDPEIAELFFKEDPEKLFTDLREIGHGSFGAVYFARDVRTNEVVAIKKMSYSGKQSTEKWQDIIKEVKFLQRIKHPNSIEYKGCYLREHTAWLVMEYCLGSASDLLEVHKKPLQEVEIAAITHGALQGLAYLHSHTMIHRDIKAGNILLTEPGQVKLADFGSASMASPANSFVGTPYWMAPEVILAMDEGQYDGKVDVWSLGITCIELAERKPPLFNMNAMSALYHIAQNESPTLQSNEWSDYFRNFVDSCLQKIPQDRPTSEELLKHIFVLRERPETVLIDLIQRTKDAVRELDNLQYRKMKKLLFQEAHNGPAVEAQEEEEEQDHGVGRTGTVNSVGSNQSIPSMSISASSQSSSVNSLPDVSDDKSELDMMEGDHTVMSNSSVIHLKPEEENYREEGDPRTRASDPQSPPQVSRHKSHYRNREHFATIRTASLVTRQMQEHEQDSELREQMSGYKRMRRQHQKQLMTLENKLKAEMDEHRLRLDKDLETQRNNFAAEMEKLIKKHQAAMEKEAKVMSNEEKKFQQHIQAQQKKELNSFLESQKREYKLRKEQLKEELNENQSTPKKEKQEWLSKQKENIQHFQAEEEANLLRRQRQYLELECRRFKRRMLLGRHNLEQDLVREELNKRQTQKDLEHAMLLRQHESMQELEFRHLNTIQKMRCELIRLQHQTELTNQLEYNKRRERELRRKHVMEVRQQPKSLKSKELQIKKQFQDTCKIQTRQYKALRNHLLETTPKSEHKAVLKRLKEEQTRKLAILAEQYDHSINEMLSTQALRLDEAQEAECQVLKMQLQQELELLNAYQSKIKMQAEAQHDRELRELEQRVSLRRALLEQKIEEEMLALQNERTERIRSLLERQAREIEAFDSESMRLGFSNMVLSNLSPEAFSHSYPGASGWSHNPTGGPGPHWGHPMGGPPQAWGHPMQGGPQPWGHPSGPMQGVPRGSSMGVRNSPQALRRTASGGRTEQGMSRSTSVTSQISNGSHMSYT

[4] = molecular target: T3, TGF-beta receptor type-1 (Homo sapiens) (UniProt P36897); test: Inhibition of TGFBR1 in human NCI-H929 cells at 10 uM by mass spectroscopic analysis relative to control; assay type: cell-based
T3 sequence (whole entry): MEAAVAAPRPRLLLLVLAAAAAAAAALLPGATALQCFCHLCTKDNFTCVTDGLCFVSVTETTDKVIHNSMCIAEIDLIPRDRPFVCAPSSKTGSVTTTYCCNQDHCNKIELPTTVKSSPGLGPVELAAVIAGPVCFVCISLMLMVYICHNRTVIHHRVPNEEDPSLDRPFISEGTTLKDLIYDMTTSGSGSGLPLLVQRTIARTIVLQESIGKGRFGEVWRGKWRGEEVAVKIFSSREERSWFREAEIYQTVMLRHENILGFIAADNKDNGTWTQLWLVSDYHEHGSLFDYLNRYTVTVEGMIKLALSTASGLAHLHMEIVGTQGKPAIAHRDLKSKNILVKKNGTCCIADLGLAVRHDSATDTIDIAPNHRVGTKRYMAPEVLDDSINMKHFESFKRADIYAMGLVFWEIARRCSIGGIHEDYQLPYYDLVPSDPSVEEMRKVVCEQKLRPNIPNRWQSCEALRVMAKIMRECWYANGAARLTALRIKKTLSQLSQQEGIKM

MAP4K2 (Homo sapiens) = test: Inhibition of GCK in human NCI-H929 cells at 10 uM by mass spectroscopic analysis relative to control
[5] = molecular target: T4, Serine/threonine-protein kinase TAO3 (Homo sapiens) (UniProt Q9H2K8); test: Inhibition of TAO3 in human NCI-H929 cells at 10 uM by mass spectroscopic analysis relative to control; assay type: cell-based
T4 sequence (whole entry): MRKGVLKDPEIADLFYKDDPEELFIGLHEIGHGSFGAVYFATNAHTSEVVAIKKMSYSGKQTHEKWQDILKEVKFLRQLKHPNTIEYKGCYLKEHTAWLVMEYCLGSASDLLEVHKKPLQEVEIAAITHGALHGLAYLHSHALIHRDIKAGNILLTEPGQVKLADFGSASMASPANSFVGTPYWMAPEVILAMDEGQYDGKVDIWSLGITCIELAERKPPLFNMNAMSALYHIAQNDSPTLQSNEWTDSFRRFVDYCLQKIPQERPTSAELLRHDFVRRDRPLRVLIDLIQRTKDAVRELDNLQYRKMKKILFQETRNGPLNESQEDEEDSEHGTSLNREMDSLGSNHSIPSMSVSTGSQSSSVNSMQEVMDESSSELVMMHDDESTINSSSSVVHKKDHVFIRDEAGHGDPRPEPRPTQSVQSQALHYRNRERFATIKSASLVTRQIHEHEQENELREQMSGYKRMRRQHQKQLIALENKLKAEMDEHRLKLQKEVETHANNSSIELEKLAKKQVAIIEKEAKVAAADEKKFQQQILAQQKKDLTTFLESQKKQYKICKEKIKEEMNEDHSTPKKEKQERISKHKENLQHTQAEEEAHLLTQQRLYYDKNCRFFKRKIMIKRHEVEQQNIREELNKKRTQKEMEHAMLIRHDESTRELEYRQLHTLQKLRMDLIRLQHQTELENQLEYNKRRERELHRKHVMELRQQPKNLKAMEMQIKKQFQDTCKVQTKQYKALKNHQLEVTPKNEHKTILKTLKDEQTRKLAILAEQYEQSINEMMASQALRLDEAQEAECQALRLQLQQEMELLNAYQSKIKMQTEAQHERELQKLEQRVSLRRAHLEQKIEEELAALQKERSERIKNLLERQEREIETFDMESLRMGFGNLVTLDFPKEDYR

Chain of Cyclin-dependent kinase 11B (Homo sapiens) (P21127 whole entry): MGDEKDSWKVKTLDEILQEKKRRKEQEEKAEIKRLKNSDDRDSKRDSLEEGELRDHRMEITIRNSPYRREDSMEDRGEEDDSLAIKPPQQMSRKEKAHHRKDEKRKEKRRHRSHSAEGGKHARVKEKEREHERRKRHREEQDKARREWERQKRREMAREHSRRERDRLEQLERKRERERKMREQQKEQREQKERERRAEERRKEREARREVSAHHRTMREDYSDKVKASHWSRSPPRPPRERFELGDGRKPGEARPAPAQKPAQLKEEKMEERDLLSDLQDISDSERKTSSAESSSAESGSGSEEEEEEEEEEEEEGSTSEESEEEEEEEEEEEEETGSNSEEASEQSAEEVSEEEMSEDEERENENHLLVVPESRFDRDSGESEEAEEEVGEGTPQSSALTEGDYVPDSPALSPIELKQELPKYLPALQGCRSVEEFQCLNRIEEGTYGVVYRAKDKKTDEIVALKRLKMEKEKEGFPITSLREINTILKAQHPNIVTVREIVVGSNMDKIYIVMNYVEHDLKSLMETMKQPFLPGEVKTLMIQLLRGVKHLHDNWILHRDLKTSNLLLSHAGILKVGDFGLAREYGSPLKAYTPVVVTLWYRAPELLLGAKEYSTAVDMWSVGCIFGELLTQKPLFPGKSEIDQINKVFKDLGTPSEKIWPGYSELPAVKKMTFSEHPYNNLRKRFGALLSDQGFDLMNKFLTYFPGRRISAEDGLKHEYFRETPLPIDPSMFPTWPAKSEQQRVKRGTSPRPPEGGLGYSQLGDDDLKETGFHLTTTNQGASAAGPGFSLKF

| Structure (SMILES) | inhibition [1] | inhibition [2] | inhibition [3] | inhibition [4] | inhibition (MAP4K2 (Homo sapiens)) | inhibition [5] |
| --- | --- | --- | --- | --- | --- | --- |
| Nc1ncc(-c2ccc(NS(=O)(=O)C3CC3)cc2F)cc1-c1ccc2c(c1)CCNC2=O | 0% |  |  | 0% | > 90% |  |
| Nc1ncc(-c2ccc(NS(=O)(=O)C3CC3)cc2OC2CCCCC2)cc1-c1ccc2c(c1)CCNC2=O | 0% |  | 0% | > 90% | > 90% | 0% |

Now from value to compound:

| inhibition [1] | inhibition [2] | inhibition [3] | inhibition [4] | inhibition (MAP4K2 (Homo sapiens)) | inhibition [5] | Structure (SMILES) |
| --- | --- | --- | --- | --- | --- | --- |
| 0% | 0% |  |  |  |  | CN(C1CC1)S(=O)(=O)c1ccc(-c2cnc(N)c(-c3ccc4c(c3)CCNC4=O)c2)c(F)c1 |
| 0% | 0% | 0% | 75% | 0% | 0% | COc1cc(NS(=O)(=O)C2CC2)ccc1-c1cnc(N)c(-c2ccc3c(c2)CCNC3=O)c1 |
| 0% | 0% | 0% |  |  | 0% | Nc1ncc(-c2cccc3ncsc23)cc1-c1ccc2c(c1)CCNC2=O |
